According to PubChem BioAssay AID1963833 (Molecular Pharmacology Branch, DTP, NCI, 2024):

System: 883617-216-R-J1-PDC complex spheroid viability
Test: Anticancer human tumor 883617-216-R-J1-PDC patient-derived bladder carcinoma cell line growth inhibition [POLQ]
Details: for IC50: curve of first compound; for viability, T/C: stronger effect = lower value
Procedure, shortened: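 PDC + HUVEC + MSC complex spheroids; POLQ inhibitors ± partner drugs; top conc. at/near clinical Cmax, else 10 microM (SN-38 1 microM), half-log dilutions; 37 degrees C, 5% CO2.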

[1] = second compound 0.0316 µM, first compound 0.0316 µM
[2] = second compound 0.0316 µM, first compound 0.1 µM
[3] = second compound 0.1 µM, first compound 0.0316 µM
[4] = second compound 0.1 µM, first compound 0.1 µM
[5] = second compound 0.316 µM, first compound 0.0316 µM
[6] = second compound 0.316 µM, first compound 0.1 µM
[7] = second compound 1 µM, first compound 0.0316 µM
[8] = second compound 1 µM, first compound 0.1 µM
[9] = second compound 3.16 µM, first compound 0.0316 µM
[10] = second compound 3.16 µM, first compound 0.1 µM
[11] = second compound 10 µM, first compound 0.0316 µM
[12] = second compound 10 µM, first compound 0.1 µM
[13] = second compound 0.0316 µM, first compound 0.316 µM
[14] = second compound 0.0316 µM, first compound 1 µM
[15] = second compound 0.0316 µM, first compound 3.16 µM
[16] = second compound 0.0316 µM, first compound 10 µM
[17] = second compound 0.1 µM, first compound 0.316 µM
[18] = second compound 0.1 µM, first compound 1 µM
[19] = second compound 0.1 µM, first compound 3.16 µM
[20] = second compound 0.1 µM, first compound 10 µM
[21] = second compound 0.316 µM, first compound 0.316 µM
[22] = second compound 0.316 µM, first compound 1 µM
[23] = second compound 0.316 µM, first compound 3.16 µM
[24] = second compound 0.316 µM, first compound 10 µM
[25] = second compound 1 µM, first compound 0.316 µM
[26] = second compound 1 µM, first compound 1 µM
[27] = second compound 1 µM, first compound 3.16 µM
[28] = second compound 1 µM, first compound 10 µM
[29] = second compound 3.16 µM, first compound 0.316 µM
[30] = second compound 3.16 µM, first compound 1 µM
[31] = second compound 3.16 µM, first compound 3.16 µM
[32] = second compound 3.16 µM, first compound 10 µM
[33] = second compound 10 µM, first compound 0.316 µM
[34] = second compound 10 µM, first compound 1 µM
[35] = second compound 10 µM, first compound 3.16 µM
[36] = second compound 10 µM, first compound 10 µM
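Note: spheroids exposed to compounds for seven days before readout.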
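Throughout, for viability, T/C: 100% = DMSO vehicle control viability.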

CC[C@@]1(O)C(=O)OCc2c1cc1n(c2=O)Cc2cc3c(CN(C)C)c(O)ccc3nc2-1 + Cc1cccc(N(C)C(=O)C2C(O)CCN2c2nc(C)cc(C(F)(F)F)c2C#N)c1
IC50 (second compound 0.0316 µM): > 100 nM | IC50 (second compound 0.1 µM): > 100 nM | IC50 (second compound 0.316 µM): > 100 nM | IC50 (second compound 1 µM): > 100 nM | IC50 (second compound 3.16 µM): > 100 nM | IC50 (second compound 10 µM): > 100 nM | viability, T/C (second compound 0.0316 µM, first compound 0.000316 µM): 96.3% | viability, T/C (second compound 0.0316 µM, first compound 0.001 µM): 85.8% | viability, T/C (second compound 0.0316 µM, first compound 0.00316 µM): 96.1% | viability, T/C (second compound 0.0316 µM, first compound 0.01 µM): 79.3% | viability, T/C [1]: 57.5% | viability, T/C [2]: 54.1% | viability, T/C (second compound 0.1 µM, first compound 0.000316 µM): 101% | viability, T/C (second compound 0.1 µM, first compound 0.001 µM): 93.3% | viability, T/C (second compound 0.1 µM, first compound 0.00316 µM): 83.7% | viability, T/C (second compound 0.1 µM, first compound 0.01 µM): 81.5% | viability, T/C [3]: 58% | viability, T/C [4]: 61.4% | viability, T/C (second compound 0.316 µM, first compound 0.000316 µM): 102% | viability, T/C (second compound 0.316 µM, first compound 0.001 µM): 106% | viability, T/C (second compound 0.316 µM, first compound 0.00316 µM): 87.6% | viability, T/C (second compound 0.316 µM, first compound 0.01 µM): 68.7% | viability, T/C [5]: 64.6% | viability, T/C [6]: 64.4% | viability, T/C (second compound 1 µM, first compound 0.000316 µM): 99.5% | viability, T/C (second compound 1 µM, first compound 0.001 µM): 113% | viability, T/C (second compound 1 µM, first compound 0.00316 µM): 97.1% | viability, T/C (second compound 1 µM, first compound 0.01 µM): 83.1% | viability, T/C [7]: 63.8% | viability, T/C [8]: 62.8% | viability, T/C (second compound 3.16 µM, first compound 0.000316 µM): 100% | viability, T/C (second compound 3.16 µM, first compound 0.001 µM): 103% | viability, T/C (second compound 3.16 µM, first compound 0.00316 µM): 98% | viability, T/C (second compound 3.16 µM, first compound 0.01 µM): 88.4% | viability, T/C [9]: 66.9% | viability, T/C [10]: 61.8% | viability, T/C (second compound 10 µM, first compound 0.000316 µM): 112% | viability, T/C (second compound 10 µM, first compound 0.001 µM): 94.6% | viability, T/C (second compound 10 µM, first compound 0.00316 µM): 105% | viability, T/C (second compound 10 µM, first compound 0.01 µM): 79.5% | viability, T/C [11]: 67.7% | viability, T/C [12]: 71%

CC1COCCN1c1cc(C2(S(C)(=N)=O)CC2)nc(-c2ccnc3[nH]ccc23)n1 (stereo not drawn) + Nc1ccc(C#CCN(C(=O)Cc2ncc(C(F)(F)F)cc2C(F)(F)F)c2ccc(F)cc2)nn1
IC50 (second compound 0.0316 µM): 5980 nM | IC50 (second compound 0.1 µM): 5700 nM | IC50 (second compound 0.316 µM): 4480 nM | IC50 (second compound 1 µM): 4270 nM | IC50 (second compound 3.16 µM): 6200 nM | IC50 (second compound 10 µM): 3530 nM | viability, T/C [1]: 110% | viability, T/C [2]: 108% | viability, T/C [13]: 89.2% | viability, T/C [14]: 76.8% | viability, T/C [15]: 59.7% | viability, T/C [16]: 42.5% | viability, T/C [3]: 82.7% | viability, T/C [4]: 101% | viability, T/C [17]: 89.8% | viability, T/C [18]: 76.4% | viability, T/C [19]: 62% | viability, T/C [20]: 39.6% | viability, T/C [5]: 96.7% | viability, T/C [6]: 111% | viability, T/C [21]: 93.1% | viability, T/C [22]: 73.4% | viability, T/C [23]: 56.7% | viability, T/C [24]: 40.2% | viability, T/C [7]: 99.5% | viability, T/C [8]: 90.3% | viability, T/C [25]: 87.5% | viability, T/C [26]: 65.4% | viability, T/C [27]: 56.6% | viability, T/C [28]: 37.4% | viability, T/C [9]: 114% | viability, T/C [10]: 93.1% | viability, T/C [29]: 97.6% | viability, T/C [30]: 82.3% | viability, T/C [31]: 63.8% | viability, T/C [32]: 39.4% | viability, T/C [11]: 98.1% | viability, T/C [12]: 105% | viability, T/C [33]: 102% | viability, T/C [34]: 83.7% | viability, T/C [35]: 52% | viability, T/C [36]: 37.5%

CCCS(=O)(=O)Nc1ccc(F)c(C(=O)c2c[nH]c3ncc(-c4ccc(Cl)cc4)cc23)c1F + Cc1cccc(N(C)C(=O)C2C(O)CCN2c2nc(C)cc(C(F)(F)F)c2C#N)c1
IC50 (second compound 0.0316 µM): > 10000 nM | IC50 (second compound 0.1 µM): > 10000 nM | IC50 (second compound 0.316 µM): > 10000 nM | IC50 (second compound 1 µM): > 10000 nM | IC50 (second compound 3.16 µM): > 10000 nM | IC50 (second compound 10 µM): > 10000 nM | viability, T/C [1]: 89.5% | viability, T/C [2]: 93.6% | viability, T/C [13]: 99.3% | viability, T/C [14]: 104% | viability, T/C [15]: 83.7% | viability, T/C [16]: 56.8% | viability, T/C [3]: 105% | viability, T/C [4]: 94.3% | viability, T/C [17]: 97.2% | viability, T/C [18]: 90.4% | viability, T/C [19]: 93.9% | viability, T/C [20]: 55.5% | viability, T/C [5]: 86.9% | viability, T/C [6]: 114% | viability, T/C [21]: 98.4% | viability, T/C [22]: 87.2% | viability, T/C [23]: 80.6% | viability, T/C [24]: 64.3% | viability, T/C [7]: 97.4% | viability, T/C [8]: 91.4% | viability, T/C [25]: 92.7% | viability, T/C [26]: 93.8% | viability, T/C [27]: 92.9% | viability, T/C [28]: 51.7% | viability, T/C [9]: 116% | viability, T/C [10]: 97.3% | viability, T/C [29]: 106% | viability, T/C [30]: 108% | viability, T/C [31]: 89.2% | viability, T/C [32]: 55.7% | viability, T/C [11]: 98.2% | viability, T/C [12]: 97.2% | viability, T/C [33]: 104% | viability, T/C [34]: 102% | viability, T/C [35]: 100% | viability, T/C [36]: 61.3%

CC1COCCN1c1cc(-c2ccnn2C)c2ccnc(-c3ccn[nH]3)c2n1 (stereo not drawn) + COC1C(OC(N)=O)C(O)C(Oc2ccc3c(O)c(NC(=O)c4ccc(O)c(CC=C(C)C)c4)c(=O)oc3c2C)OC1(C)C
IC50 (second compound 0.0316 µM): 297 nM | IC50 (second compound 0.1 µM): 285 nM | IC50 (second compound 0.316 µM): 124 nM | IC50 (second compound 1 µM): 154 nM | IC50 (second compound 3.16 µM): 156 nM | IC50 (second compound 10 µM): 139 nM | viability, T/C [1]: 89.7% | viability, T/C [2]: 63.8% | viability, T/C [13]: 53.1% | viability, T/C [14]: 37% | viability, T/C [15]: 28.1% | viability, T/C [16]: 30.7% | viability, T/C [3]: 83.2% | viability, T/C [4]: 62.9% | viability, T/C [17]: 49.5% | viability, T/C [18]: 37.7% | viability, T/C [19]: 31.7% | viability, T/C [20]: 27% | viability, T/C [5]: 91.2% | viability, T/C [6]: 51% | viability, T/C [21]: 38.6% | viability, T/C [22]: 40.8% | viability, T/C [23]: 33.1% | viability, T/C [24]: 27.3% | viability, T/C [7]: 82.7% | viability, T/C [8]: 54.3% | viability, T/C [25]: 41.7% | viability, T/C [26]: 32.5% | viability, T/C [27]: 26.5% | viability, T/C [28]: 24.4% | viability, T/C [9]: 86.3% | viability, T/C [10]: 53.3% | viability, T/C [29]: 44% | viability, T/C [30]: 34.8% | viability, T/C [31]: 29.6% | viability, T/C [32]: 29.5% | viability, T/C [11]: 91.1% | viability, T/C [12]: 54.4% | viability, T/C [33]: 39.2% | viability, T/C [34]: 32.2% | viability, T/C [35]: 29.8% | viability, T/C [36]: 32.3%
